Reference: US20260347319A1, “YAP/TAZ-TEAD ONCOPROTEINS INHIBITORS” (BridGene Biosciences, Inc., priority 2022, published 2026)

Tested on: TEAD1
Experiment: MCF-7 TEAD1-luciferase reporter assay (MCF7-TEAD-Luc)
Format: cell-based
Settings: MCF7 cells, overnight; for IC50: Homo sapiens; for TEAD1-Luc MCF7: Max Inhibition: % of DMSO-treated control
Description: The ability of compounds to inhibit TEAD-dependent transcription was assessed in the MCF7-TEAD-Luc reporter assay (BPS #60618). Cells were seeded at 10,000 cells in 200 μL per well into white wall, clear bottom 96-well plates (Corning #3610) and incubated at 37° C. for 24 hours, then treated with serial diluted compounds overnight, and luciferase signal was measured using the ONE-Step Luciferase Assay System (BPS #60690) using an EnSight Multimode plate reader (PerkinElmer, model #MLDHH34000000, integration time 100 ms) with Kaleido 3.0. software. For data analysis, dose-dependent curves were plotted as “% inhibition” (% of DMSO-treated control wells), and were fitted by four-parametric model in GraphPad Prism to obtain IC50 values.

Row | SMILES | IC50 [nM] | TEAD1-Luc MCF7: Max Inhibition
1 | C=CC(=O)N1CC[C@@H](/C=C/Cc2ccc(C(F)(F)F)cc2)C1 (single isomer, unassigned) [Example 93] | 10 to 100 | B (75% > B ≥ 50%)
2 | C=CC(=O)N1CC[C@H](/C=C/Cc2ccc(C(F)(F)F)cc2)C1 (single isomer, unassigned) [Example 94] | 10 to 100 | B (75% > B ≥ 50%)
3 | C=CC(=O)N1CCC2(C=C(c3ccc(C(F)(F)F)cc3)CC2)C1 (single isomer, unassigned) [Example 95, 1-(7-(4-(trifluoromethyl)phenyl)-2-azaspiro[4.4]non-6-en-2-yl)prop-2-en-1-one] | 100 to 500 | B (75% > B ≥ 50%)
4 | C=CC(=O)N1CCC2(CC=C(c3ccc(C(F)(F)F)cc3)C2)C1 (single isomer, unassigned) [Example 96, 1-(7-(4-(trifluoromethyl)phenyl)-2-azaspiro[4.4]non-7-en-2-yl) prop-2-en-1-one] | 10 to 100 | B (75% > B ≥ 50%)
5 | C=CC(=O)N1CCC2(C=C(c3ccc(C(F)(F)F)cc3)CO2)C1 (single isomer, unassigned) [Example 97, 1-(3-(4-(trifluoromethyl)phenyl)-1-oxa-7-azaspiro[4.4]non-3-en-7-yl)prop-2-en-1-one] | 100 to 500 | C (50% > C ≥ 2%)
6 | C=CC(=O)N1CCC2(CC(c3ccc(C(F)(F)F)cc3)=CO2)C1 (single isomer, unassigned) [Example 98, 1-(3-(4-(trifluoromethyl)phenyl)-1-oxa-7-azaspiro[4.4]non-2-en-7-yl)prop-2-en-1-one] | > 500 | C (50% > C ≥ 2%)
7 | C=CC(=O)N1CC[C@H]([C@@H](O)/C=C/c2ccc(C(F)(F)F)cc2)C1 (single isomer, unassigned) [Example 103] | 100 to 500 | B (75% > B ≥ 50%)
8 | C=CC(=O)N1CC[C@H]([C@H](O)/C=C/c2ccc(C(F)(F)F)cc2)C1 (single isomer, unassigned) [Example 104] | 100 to 500 | B (75% > B ≥ 50%)
9 | C=CC(=O)N1C[C@H](C)[C@@H](/C=C/c2ccc(C(F)(F)F)cc2)C1 (stereo in doubt) [Example 40, 1-[(3R*,4R*)-3-methyl-4-{2-[4-(trifluoromethyl)phenyl]ethenyl}pyrrolidin-1-yl]prop-2-en-1-one] | > 500 | A (A ≥ 75%)
10 | C=CC(=O)N1CC(C/C=C/c2cc(C(F)(F)F)on2)C1 [Example 2, 1-{3-[(2E)-3-[5-(trifluoromethyl)-1,2-oxazol-3-yl]prop-2-en-1-yl]azetidin-1-yl}prop-2-en-1-one] | ≤ 10 | A (A ≥ 75%)
11 | C=CC(=O)N1CC(/C=C/c2ccc(C(F)(F)F)c(OC)c2)C1 [Example 3, 1-{3-[(E)-2-[3-methoxy-4-(trifluoromethyl)phenyl]ethenyl]azetidin-1-yl}prop-2-en-1-one] | ≤ 10 | B (75% > B ≥ 50%)
12 | C=CC(=O)N1CC(/C=C/c2ccc(C(F)(F)F)c(F)c2)C1 [Example 4, 1-{3-[(E)-2-[3-fluoro-4-(trifluoromethyl)phenyl]ethenyl]azetidin-1-yl}prop-2-en-1-one] | ≤ 10 | A (A ≥ 75%)
13 | C=CC(=O)N1CCC(/C=C/c2ccc(C(F)(F)F)cc2)CC1 [Example 6] | 10 to 100 | B (75% > B ≥ 50%)
14 | C=CC(=O)N1CC(F)(/C=C/c2cc(C(F)(F)F)on2)C1 [Example 7, (E)-1-(3-fluoro-3-(2-(5-(trifluoromethyl)isoxazol-3-yl)vinyl)azetidin-1-yl)prop-2-en-1-one] | ≤ 10 | A (A ≥ 75%)
15 | C=CC(=O)N1CC(F)(/C=C\c2cc(C(F)(F)F)on2)C1 [Example 8, (Z)-1-(3-fluoro-3-(2-(5-(trifluoromethyl)isoxazol-3-yl)vinyl)azetidin-1-yl)prop-2-en-1-one] | ≤ 10 | A (A ≥ 75%)
16 | C=CC(=O)N1CC(C)(/C=C/c2cc(C(F)(F)F)on2)C1 [Example 16, 1-(3-methyl-3-(2-(5-(trifluoromethyl)isoxazol-3-yl)vinyl)azetidin-1-yl)prop-2-en-1-one] | ≤ 10 | A (A ≥ 75%)
17 | C=CC(=O)N1CC(/C=C/c2ccc(C(F)(F)F)cc2)(OC)C1 [Example 17] | ≤ 10 | B (75% > B ≥ 50%)
18 | C=CC(=O)N1CC(C)(/C=C/c2ccc(C(F)(F)F)cc2)C1 [Example 18] | ≤ 10 | A (A ≥ 75%)

Row | SMILES | IC50 [nM] | TEAD1-Luc MCF7: Max Inhibition
19 | C=CC(=O)N1CC(/C=C/c2ccc(C(F)(F)F)cc2OC)C1 [Example 19, 1-(3-(2-methoxy-4-(trifluoromethyl)styryl)azetidin-1-yl)prop-2-en-1-one] | 10 to 100 | C (50% > C ≥ 2%)
20 | C=CC(=O)N1CC2(CC(/C=C/c3ccc(C(F)(F)F)cc3)C2)C1 [Example 20] | 100 to 500 | B (75% > B ≥ 50%)
21 | C=CC(=O)N1CC2(CC(/C=C/c3cc(C(F)(F)F)on3)C2)C1 [Example 22, 1-{6-[(E)-2-[5-(trifluoromethyl)-1,2-oxazol-3-yl]ethenyl]-2-azaspiro[3.3]heptan-2-yl}prop-2-en-1-one] | 10 to 100 | B (75% > B ≥ 50%)
22 | C=CC(=O)N1CC2(CC(/C=C\c3cc(C(F)(F)F)on3)C2)C1 [Example 23, 1-{6-[(Z)-2-[5-(trifluoromethyl)-1,2-oxazol-3-yl]ethenyl]-2-azaspiro[3.3]heptan-2-yl}prop-2-en-1-one] | 10 to 100 | B (75% > B ≥ 50%)
23 | C=CC(=O)N1CC2(CCC(/C=C/c3cc(C(F)(F)F)on3)CC2)C1 [Example 24, 1-{7-[(E)-2-[5-(trifluoromethyl)-1,2-oxazol-3-yl]ethenyl]-2-azaspiro[3.5]nonan-2-yl}prop-2-en-1-one] | > 500 | C (50% > C ≥ 2%)
24 | C=CC(=O)N1CC2(CCC(/C=C\c3cc(C(F)(F)F)on3)CC2)C1 [Example 25, 1-{7-[(Z)-2-[5-(trifluoromethyl)-1,2-oxazol-3-yl]ethenyl]-2-azaspiro[3.5]nonan-2-yl}prop-2-en-1-one] | 100 to 500 | B (75% > B ≥ 50%)
25 | C=CC(=O)N1CC(/C=C\c2cc(C(F)(F)F)on2)C1 [Example 26, 1-{3-[(Z)-2-[5-(trifluoromethyl)-1,2-oxazol-3-yl]ethenyl]azetidin-1-yl}prop-2-en-1-one] | 10 to 100 | B (75% > B ≥ 50%)
26 | C=CC(=O)N1C[C@@H](CC)[C@H](/C=C\c2ccc(C(F)(F)F)cc2)C1 [Example 31, 1-{3-ethyl-4-[(Z)-2-[4-(trifluoromethyl)phenyl]ethenyl]pyrrolidin-1-yl}prop-2-en-1-one] | 100 to 500 | A (A ≥ 75%)
27 | C=CC(=O)N1C[C@@H](CC)[C@H](/C=C/c2ccc(C(F)(F)F)cc2)C1 [Example 32, 1-{3-ethyl-4-[(E)-2-[4-(trifluoromethyl)phenyl]ethenyl]pyrrolidin-1-yl}prop-2-en-1-one] | 100 to 500 | A (A ≥ 75%)
28 | C=CC(=O)N1CCC(/C=C/c2ccc(C(F)(F)F)cc2)(OC)C1 (stereo not drawn) [Example 35, (E)-1-(3-methoxy-3-(4-(trifluoromethyl)styryl)pyrrolidin-1-yl)prop-2-en-1-one] | 10 to 100 | A (A ≥ 75%)
29 | C=CC(=O)N1CC(C#N)(/C=C/c2ccc(C(F)(F)F)cc2)C1 [Example 37] | 10 to 100 | A (A ≥ 75%)
30 | C=CC(=O)N1CC2(CC=C(c3ccc(C(F)(F)F)cc3)CC2)C1 [Example 46, 1-(7-(4-(trifluoromethyl)phenyl)-2-azaspiro[3.5]non-6-en-2-yl)prop-2-en-1-one] | 10 to 100 | B (75% > B ≥ 50%)
31 | C=CC(=O)N1CC2(C=C(c3ccc(C(F)(F)F)cc3)CC2)C1 [Example 47, 1-(6-(4-(trifluoromethyl)phenyl)-2-azaspiro[3.4]oct-5-en-2-yl)prop-2-en-1-one] | ≤ 10 | C (50% > C ≥ 2%)
32 | C=CC(=O)N1CC2(CC=C(c3ccc(C(F)(F)F)cc3)C2)C1 [Example 48, 1-(6-(4-(trifluoromethyl)phenyl)-2-azaspiro[3.4]oct-6-en-2-yl)prop-2-en-1-one] | 100 to 500 | B (75% > B ≥ 50%)
33 | C=CC(=O)N1CC(c2cc3ccc(C(F)(F)F)cc3o2)C1 [Example 49, 1-{3-[6-(trifluoromethyl)-1-benzofuran-2-yl]azetidin-1-yl}prop-2-en-1-one] | 100 to 500 | B (75% > B ≥ 50%)
34 | C=CC(=O)N1CC(c2cc3cc(C(F)(F)F)ccn3n2)C1 [Example 50, 1-(3-(5-(trifluoromethyl)pyrazolo[1,5-a]pyridin-2-yl)azetidin-1-yl)prop-2-en-1-one] | ≤ 10 | B (75% > B ≥ 50%)
35 | C=CC(=O)N1CC(c2cc3ccc(C(F)(F)F)cn3n2)C1 [Example 51, 1-(3-(6-(trifluoromethyl)pyrazolo[1,5-a]pyridin-2-yl)azetidin-1-yl)prop-2-en-1-one] | 10 to 100 | B (75% > B ≥ 50%)
36 | C=CC(=O)N1CC(c2cc3ccc(C(F)(F)F)cc3[nH]2)C1 [Example 52, 1-{3-[6-(trifluoromethyl)-1H-indol-2-yl]azetidin-1-yl}prop-2-en-1-one] | 10 to 100 | A (A ≥ 75%)
